One data set has as its target T1, Catenin beta-1 (Homo sapiens, UniProt P35222).
T1 sequence (P35222 whole entry): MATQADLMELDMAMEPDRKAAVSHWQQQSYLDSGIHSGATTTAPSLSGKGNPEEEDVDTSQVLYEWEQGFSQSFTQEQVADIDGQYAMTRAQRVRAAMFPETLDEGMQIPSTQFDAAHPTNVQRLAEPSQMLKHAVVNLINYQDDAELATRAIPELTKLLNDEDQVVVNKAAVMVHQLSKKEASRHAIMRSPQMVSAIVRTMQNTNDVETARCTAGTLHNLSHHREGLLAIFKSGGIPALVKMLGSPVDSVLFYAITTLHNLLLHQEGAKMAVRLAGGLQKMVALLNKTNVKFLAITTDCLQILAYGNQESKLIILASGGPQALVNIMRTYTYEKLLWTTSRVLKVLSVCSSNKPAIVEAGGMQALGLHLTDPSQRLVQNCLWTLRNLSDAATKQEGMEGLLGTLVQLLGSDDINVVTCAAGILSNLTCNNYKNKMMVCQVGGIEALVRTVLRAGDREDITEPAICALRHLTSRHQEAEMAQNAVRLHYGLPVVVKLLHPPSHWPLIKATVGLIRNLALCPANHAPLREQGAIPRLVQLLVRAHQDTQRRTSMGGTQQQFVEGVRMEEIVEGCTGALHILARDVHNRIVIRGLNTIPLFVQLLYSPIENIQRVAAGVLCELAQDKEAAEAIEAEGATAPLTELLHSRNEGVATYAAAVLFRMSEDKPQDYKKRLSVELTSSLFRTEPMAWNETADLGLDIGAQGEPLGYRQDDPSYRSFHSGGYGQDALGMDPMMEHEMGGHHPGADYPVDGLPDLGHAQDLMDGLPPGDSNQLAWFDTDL
Briefly: Binding affinity to full length his-tagged human beta-catenin (1 to 781 residues) expressed in Escherichia coli DE3 assessed as dissociation constant by SPR analysis. In general terms: Surface plasmon resonance follows binding to a sensor surface in real time, without labels.

Another data set can be described thus: cells. The note with it: Homo sapiens, HCT-116, 24 h.
Data set [1] has as its target T2, beta-catenin-B-cell lymphoma 9 protein complex (Homo sapiens, UniProt P35222).
T2 sequence (P35222 whole entry): T1 sequence (P35222 whole entry)
T2 sequence (O00512 whole entry): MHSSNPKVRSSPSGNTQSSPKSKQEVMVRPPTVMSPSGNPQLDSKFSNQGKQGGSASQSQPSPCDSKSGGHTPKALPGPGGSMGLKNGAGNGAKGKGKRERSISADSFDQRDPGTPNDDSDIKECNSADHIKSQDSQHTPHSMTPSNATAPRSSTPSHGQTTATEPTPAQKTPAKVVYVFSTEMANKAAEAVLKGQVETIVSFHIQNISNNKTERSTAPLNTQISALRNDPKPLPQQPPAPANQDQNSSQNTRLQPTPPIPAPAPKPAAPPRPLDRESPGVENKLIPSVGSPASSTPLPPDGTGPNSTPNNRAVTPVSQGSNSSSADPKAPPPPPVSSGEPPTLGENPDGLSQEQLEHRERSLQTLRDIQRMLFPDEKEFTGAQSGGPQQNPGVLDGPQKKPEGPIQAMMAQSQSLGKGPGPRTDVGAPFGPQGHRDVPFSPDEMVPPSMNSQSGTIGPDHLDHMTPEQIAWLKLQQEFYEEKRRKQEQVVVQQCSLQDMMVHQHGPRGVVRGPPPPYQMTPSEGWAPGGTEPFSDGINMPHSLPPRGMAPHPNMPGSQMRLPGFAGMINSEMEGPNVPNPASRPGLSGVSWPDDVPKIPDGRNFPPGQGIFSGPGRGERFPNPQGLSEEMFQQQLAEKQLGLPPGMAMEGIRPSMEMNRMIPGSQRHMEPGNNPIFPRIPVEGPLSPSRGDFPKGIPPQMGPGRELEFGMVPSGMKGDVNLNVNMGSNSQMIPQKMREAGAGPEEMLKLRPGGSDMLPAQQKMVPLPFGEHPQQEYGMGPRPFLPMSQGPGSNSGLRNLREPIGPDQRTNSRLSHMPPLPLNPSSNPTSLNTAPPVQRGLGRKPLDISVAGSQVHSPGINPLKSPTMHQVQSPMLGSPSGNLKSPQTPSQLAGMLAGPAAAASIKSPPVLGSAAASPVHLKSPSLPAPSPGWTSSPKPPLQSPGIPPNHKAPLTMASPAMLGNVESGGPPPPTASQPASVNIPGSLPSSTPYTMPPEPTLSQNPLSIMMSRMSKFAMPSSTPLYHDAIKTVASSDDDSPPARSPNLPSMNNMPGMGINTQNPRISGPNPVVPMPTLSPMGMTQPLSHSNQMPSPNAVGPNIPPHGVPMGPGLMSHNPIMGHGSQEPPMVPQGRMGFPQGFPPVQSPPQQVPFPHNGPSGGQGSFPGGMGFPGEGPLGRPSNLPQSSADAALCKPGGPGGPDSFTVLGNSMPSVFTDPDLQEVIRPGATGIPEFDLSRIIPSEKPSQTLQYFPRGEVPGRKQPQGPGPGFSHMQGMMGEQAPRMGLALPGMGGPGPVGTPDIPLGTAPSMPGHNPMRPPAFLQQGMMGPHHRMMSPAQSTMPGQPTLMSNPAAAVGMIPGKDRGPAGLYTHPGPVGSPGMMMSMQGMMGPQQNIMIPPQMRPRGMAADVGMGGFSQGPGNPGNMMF
Briefly: Inhibition of full length his-tagged human beta-catenin (1 to 781 residues) expressed in Escherichia coli DE3/N-terminal FAM-tagged human BCL9 (350 to 375 residues) protein-protein interaction incubated for 2 hrs by fluorescence polarization assay. (In general: Polarisation of emitted light reports the rotation of a fluorescent probe.)

Data set [2] is described as follows: Tmax in ICR mouse at 1 mg/kg, iv measured upto 24 hrs by HPLC-MS/MS analysis. The class given is ADME, organism-based. The note with it: in vivo.
The nature of data set [3]: in vitro. Particulars: mouse, liver microsomes. (In general: Liver microsomes are a subcellular fraction often used to study metabolism.)
Description: Metabolic stability in mouse liver microsome assessed as clearance preincubated with compound for 10 mins followed by NADPH addition and measured upto 60 mins by LC-MS/MS analysis
A short description of data set [4]: in vitro. The note with it: mouse, liver microsomes. The source holds these as a separate data set.
Description: Metabolic stability in mouse liver microsome assessed as half life preincubated with compound for 10 mins followed by NADPH addition and measured upto 60 mins by LC-MS/MS analysis
Data set [5] is described as follows: Half life in ICR mouse at 1 mg/kg, iv measured upto 24 hrs by HPLC-MS/MS analysis. The note with it: in vivo. The format is ADME, organism-based.
Data set [6] can be described thus: Cmax in ICR mouse at 1 mg/kg, iv measured upto 24 hrs by HPLC-MS/MS analysis. The format is ADME, organism-based. Particulars: in vivo.
Data set [7] is described as follows: Clearance in ICR mouse at 1 mg/kg, iv measured upto 24 hrs by HPLC-MS/MS analysis. Particulars: in vivo. The class given is ADME, organism-based.
Data set [8] in a line: AUC (0 to t) in ICR mouse at 1 mg/kg, iv measured upto 24 hrs by HPLC-MS/MS analysis. The class given is ADME, organism-based. Particulars: in vivo.
The test system of data set [9] is CT26. Briefly: Antitumor activity against mouse CT26 cells implanted in BALB/c mouse assessed as tumor growth inhibition at 30 mg/kg, ip measured for 14 days. The format is functional. Particulars: CT26, 336 h, time 14 day, read-out: TGI.
A short description of data set [10]: Toxicity in BALB/c mouse implanted with mouse CT26 cells assessed as body weight loss at 30 mg/kg, ip measured for 14 days. Particulars: in vivo, 336 h, time 14 day. The class given is organism-based.
A short description of data set [11]: Antitumor activity against mouse PBMC cells implanted in BALB/c mouse assessed as increase in CD103 + XCR1 cDC1 expression at 30 mg/kg, ip measured for 7 days by qPCR analysis. The note with it: time 7 day. The format is functional.
Data set [12] deals with CT26. Briefly: Antitumor activity against mouse CT26 cells implanted in BALB/c mouse assessed as tumor growth inhibition at 30 mg/kg, ip measured for 7 days. Particulars: CT26, 168 h, read-out: TGI.
In data set [13] the test system is CT26. Briefly: Antitumor activity against mouse CT26 cells implanted in BALB/c mouse assessed as increase in CD103+ expression level at 30 mg/kg, ip measured for 7 days by flow cytometry analysis (reference value: 4.95%). The class given is functional. The note with it: time 7 day.
The target of data set [14] is T2, beta-catenin-B-cell lymphoma 9 protein complex. In words: Inhibition of beta-catenin (unknown origin)/BCL9 (unknown origin) protein-protein interaction. The format is protein-complex assay.

SMILES strings stand for the structures.

Results on 13 compounds are retold here after ChEMBL document CHEMBL5550183, “Discovery of Novel 1-Phenylpiperidine Urea-Containing Derivatives Inhibiting β-Catenin/BCL9 Interaction and Exerting Antitumor Efficacy through the Activation of Antigen Presentation of cDC1 Cells” (J Med Chem, 2024).

Description for cells: Inhibition of Wnt/beta-catenin signaling pathway in human HCT-116 cells assessed as reduction in Axin2 expression incubated for 24 hrs by qPCR analysis

One may read the Kd as the concentration at which binding is half-saturated. What is called IC50 is the point on the concentration scale where inhibition reaches its midpoint. Read a high IC50 as lower potency. With `CC(C)(Oc1cccc(N2CCC[C@@H](NC(=O)N(Cc3ccc(-c4cn[nH]c4)cc3)C3CC3)C2)c1)C(=O)NCC(=O)N1CCCC1CCN` (stereo partly specified), the equilibrium dissociation constant (Kd) on Catenin beta-1 came out at 0.082 µM. Moreover, the half-inhibitory concentration (IC50) in “cells” was found to be 4.45 µM; in data set [1], 3.92 µM.

For the compound `CC(C)(Oc1cccc(N2CCC[C@@H](NC(=O)N(Cc3ccc(-c4cn[nH]c4)cc3)C3CC3)C2)c1)C(=O)N1CCNCC1`, in “cells”, the midpoint of inhibition, the IC50, lay at 4.67 µM. This counts as single-digit micromolar.

On to `O=C1[C@H](Cc2ccc(O)cc2)N2C(=O)CCN(C(=O)NCc3ccccc3)[C@H]2CN1Cc1cccc2ccccc12`, for which the IC50 in the data set “cells” turned out to be 3.34 µM.

In the case of `CC(C)(Oc1cccc(N2CCC[C@H](NC(=O)N(Cc3ccc(-c4cn[nH]c4)cc3)C3CC3)C2)c1)C(=O)N1CCOCC1`, 8.24 µM corresponded to half-maximal inhibition in “cells” (IC50).

For the compound `CC(C)(Oc1cccc(N2CCC[C@H](NC(=O)N(Cc3ccc(-c4cn[nH]c4)cc3)C3CC3)C2)c1)C(=O)N1CCNCC1`, in the data set “cells”, inhibition was half-maximal at 4.35 µM (IC50).

In “cells”, `CC(C)(Oc1cccc(N2CCC[C@@H](NC(=O)N(Cc3ccc(-c4cn[nH]c4)cc3)C3CC3)C2)c1)C(=O)N1CCOCC1` displayed an IC50 of 5.41 µM.

In the data set “cells”, `CC(C)(Oc1cccc(N2CCC[C@H](NC(=O)N(Cc3ccc(-c4cn[nH]c4)cc3)C3CC3)C2)c1)C(=O)NCCCN` had a half-maximal inhibitory concentration (IC50) greater than 10 µM.

Broadly, the Tmax is the time from dosing to the highest level. Broadly, the microsomal CLint is a measure of how fast metabolising enzymes remove a compound, apart from limits set by blood flow. A high value points to faster metabolism. Usually half-life stands for the time needed for the level to fall by half in the phase considered. Read a low half-life as fast loss. For orientation: Cmax means the peak of the concentration-time curve. For orientation: clearance means a measure of how efficiently the substance is removed, as volume per time. In general, AUC(0-t) refers to exposure summed from dosing to a finite time, without extrapolation to infinity. Higher therefore signals more exposure. `CC(C)(Oc1cccc(N2CCC[C@@H](NC(=O)N(Cc3ccc(-c4cn[nH]c4)cc3)C3CC3)C2)c1)C(=O)NCCCN` showed a half-maximal inhibitory concentration (IC50) in “cells” of 2.88 µM. In addition, the Tmax in data set [2] is 4.8 min. The compound further registered an intrinsic clearance (microsomal CLint) at 1 h in “in vitro [3]” of 67 µL/min/mg. This compound also returned a half-life at 1 h in the data set “in vitro [4]” of 31.5 min. In addition, the half-life in data set [5] is 40.2 min. Further, in data set [6], the highest level (Cmax) was 910 ng/mL. Besides, in [7], the clearance turned out to be 40 mL/min/kg. In [8], this compound displayed an exposure AUC(0-t) at 24 h of 430 ng·h/mL. Besides, the inhibition in vivo at 30 mg/kg in the data set with CT26 [9] amounted to 56.4%. For the same compound, the Activity entry in data set [10] is given as “Non-Toxic”.

With `CC(C)(Oc1cccc(N2CCC[C@H](NC(=O)N(Cc3ccc(-c4cn[nH]c4)cc3)C3CC3)C2)c1)C(=O)NCC(=O)N1CCCC1CCN` (stereo partly specified), on Catenin beta-1, the dissociation constant (Kd) is 0.64 µM. Further, the concentration for half-maximal inhibition (IC50) in the data set “cells” was found to be 5.3 µM; in data set [1], 2.06 µM.

Consider `CC(C)(Oc1cccc(N2CCC[C@@H](NC(=O)N(Cc3ccc(-c4cn[nH]c4)cc3)C3CC3)C2)c1)C(=O)NCCN`, for which the Kd at Catenin beta-1 came out at 0.25 µM. In addition, the IC50 in “cells” is 2.54 µM; in data set [1], greater than 20 µM.

Turning to `CC(C)(Oc1cccc(N2CCC[C@H](NC(=O)N(Cc3ccc(-c4cn[nH]c4)cc3)C3CC3)C2)c1)C(=O)NCCN`, the Kd at Catenin beta-1 is 0.25 µM. Also, the 50% inhibitory concentration (IC50) in “cells” was 7.5 µM; in data set [1] it was 1.83 µM.

Turning to `CC(C)(Oc1cccc(N2CCC[C@@H](C(=O)N(Cc3ccc(-c4cn[nH]c4)cc3)C3CC3)C2)c1)C(=O)N1CCNCC1`, the Activity in data set [11] came out at 5.17%; in the data set on CT26 [13], 14.9%. It took 3.34 µM to reach half-maximal inhibition in “cells” (IC50). The figures for the inhibition in vivo at 30 mg/kg in the data set on CT26 [12] and in the data set on CT26 [9] were 44.1% and 42.4%, respectively. Moreover, the microsomal CLint at 1 h in the data set “in vitro [3]” turned out to be 888 µL/min/mg. Further, the half-life at 1 h in the data set “in vitro [4]” amounted to 2.37 min.

Broadly, the Ki is a dissociation constant, usually derived from enzyme kinetics or from competition with a known ligand. A high value points to a looser hold on the target. In data set [14], `CCCC(=O)Oc1ccc([N+](=O)[O-])cc1` showed an inhibition constant (Ki) of 2.1 µM.
